Columns and labels:
Type in all cases: functional
Citrobacter freundii = experiment: Potentiation of imipenem-induced antibacterial activity against Citrobacter freundii T2431 expressing KPC-3 assessed as fold change in imipenem MIC at 32 mg/L by CLSI protocol based broth microdilution assay
Escherichia coli [1] = experiment: Potentiation of ceftazidime-induced antibacterial activity against Escherichia coli clinical isolate T2228 expressing VIM-1 assessed as ceftazidime MIC at 32 mg/L by CLSI protocol based broth microdilution assay
Klebsiella pneumoniae [2] = experiment: Potentiation of ceftazidime-induced antibacterial activity against Klebsiella pneumoniae clinical isolate T2301 expressing NDM-1 assessed as ceftazidime MIC at 32 mg/L by CLSI protocol based broth microdilution assay
Pseudomonas aeruginosa [3] = experiment: Potentiation of imipenem-induced antibacterial activity against Pseudomonas aeruginosa T2357 expressing VIM-1 assessed as imipenem MIC at 32 mg/L by CLSI protocol based broth microdilution assay
Klebsiella pneumoniae [4] = experiment: Potentiation of piperacillin-induced antibacterial activity against Klebsiella pneumoniae clinical isolate T2301 expressing NDM-1 assessed as piperacillin MIC at 32 mg/L by CLSI protocol based broth microdilution assay
Klebsiella pneumoniae [5] = experiment: Potentiation of ciprofloxacin-induced antibacterial activity against Klebsiella pneumoniae clinical isolate T2301 expressing NDM-1 assessed as ciprofloxacin MIC at 32 mg/L by CLSI protocol based broth microdilution assay
Escherichia coli [6] = experiment: Potentiation of imipenem-induced antibacterial activity against Escherichia coli T2351 expressing NDM-5 assessed as fold change in imipenem MIC at 32 mg/L by CLSI protocol based broth microdilution assay
Escherichia coli [7] = experiment: Potentiation of imipenem-induced antibacterial activity against Escherichia coli T2359 expressing NDM-1 assessed as fold change in imipenem MIC at 32 mg/L by CLSI protocol based broth microdilution assay
Pseudomonas aeruginosa [8] = experiment: Potentiation of imipenem-induced antibacterial activity against Pseudomonas aeruginosa T2229 expressing SPM-1 assessed as fold change in imipenem MIC at 32 mg/L by CLSI protocol based broth microdilution assay

MIC (Escherichia coli [1]): 0.06 µg/mL
MIC (Klebsiella pneumoniae [2]): 0.064 µg/mL
MIC (Pseudomonas aeruginosa [3]): 0.008 µg/mL
MIC (Klebsiella pneumoniae [4]): 2.05 µg/mL
MIC (Klebsiella pneumoniae [5]): 0.128 µg/mL
Structure (SMILES): N#CCN(Cc1ccccc1)Cc1cc([N+](=O)[O-])c2cccnc2c1O
fold change (FC) (Citrobacter freundii): 2
fold change (FC) (Escherichia coli [6]): 8
fold change (FC) (Escherichia coli [7]): 256
fold change (FC) (Pseudomonas aeruginosa [8]): 16
